Tests used:
[1] = system: Primary Rat Hippocampal Cells; assay: Neurite outgrowth assay (MAP-2 immunofluorescence) in primary rat hippocampal cells; assay type: cell-based; details: MAP-2 fluorescence, active if greater than mean DMSO-treated control on same plate, NA = Not active
Protocol: Hippocampal cells are dissected from the brains of embryonic day 18 rat pups and dissociated with trypsin (1 mg/mL) and trituration. Cells are seeded at 30,000 cells/well in 96-well plates filled with 100 μL MEM and 10%FBS. At 7 days in culture, cells are fixed with 4% paraformaldehyde and immunofluorescence is performed.
(§1) Cultures are incubated with normal horse serum (1:50; Vector Labs) for about 20 min, rinsed and then incubated with primary antibody, microtubule associated-protein 2 (anti-mouse MAP-2; 1:1000; Chemicon) for about 2 h at about RT. Following primary antibody, cultures are rinsed and incubated with fluorescein anti-mouse IgG (rat absorbed; 1:50; Vector Labs) for about 1 h. After fluorescein incubation, the cultures are rinsed and read in PBS on a fluorescent plate reader (excitation: 485 nm; emission: 530 nm). A compound is regarded as active if the neurite outgrowth response is greater than the mean DMSO-treated control response on the same plate. The response to test compound is reported as percent of DMSO-treated control (absent the percentage sign). The signal-to-noise separation is consistent: the fluorescence from DMSO control wells is at least two-fold greater than blank wells.

[2] = system: Human M17 Neuroblastoma Cells; assay: Neurite outgrowth assay (MAP-2 immunofluorescence) in M17 neuroblastoma cells; assay type: cell-based; details: MAP-2 fluorescence, active if greater than mean DMSO-treated control on same plate, NA = Not active
Protocol: M17 human neuroblastoma cells are cultured in 1:1 ratio of EMEM and Ham's F12 with 1×NEAA and 10% FBS. The culture media contains 1×PSN antibiotic and is exchanged every other day, and the cells are passed in log phase near confluence.
as §1

[3] = system: DRG; assay: Dorsal root ganglion (DRG) culture, neurite outgrowth; assay type: cell-based, CD rats; parameters: key: + = Positive results for each experiment; − = Negative results for each experiment; NA = Not active; details: test compound 50-250 nM; neurite outgrowth examined on days 1-5; positive (+) if compound induced neurites of ≧1 diameter of the DRG
Protocol: DRG are dissected from newborn or 1-day-old CD rats and placed into PBS on ice. After rinsing twice with sterile plating medium, DRG are transferred to empty wells of a 6-well plate coated with polyomithine/laminin (Becton Dickinson Labware) using #7 curved forceps. Three ml/well of plating medium are then added very gently, so as not to disturb the DRG. Plating medium is Leibovitz's L-15 medium (Gibco), plus 0.6% glucose, 33 mM KCl, 10% FCS, 10 mM Hepes and penicillin/streptomycin/glutamine. After overnight incubation at about 37° C. in 5% CO2, this medium is replaced with 3 mL/well of assay medium [Leibovitz's L-15 medium plus 0.6% glucose, 1% FCS, 1% N-2 supplement (Gibco), […], 10 mM Hepes, and penicillin/streptomycin/glutamine] containing either vehicle (DMSO, 1/200,000), positive control (2-4 ng/mL NGF) or test compound (50-250 nM). All media are prepared fresh daily. DRG are microscopically examined for neurite outgrowth on days 1-5.

[4] = system: facial nerve; assay: Rat facial nerve compression model; assay type: in vivo, Long-Evans rats; details: p.o. about 20 mg/kg twice a day for 15 days after surgery; compared to vehicle and internal control; FIG. 1
Protocol: In this model, compressing the facial nerve causes paralysis of the whisker muscle on that side of the face. The untreated facial nerve on the other side functions as an internal control. […] The whisker movement recovery rate on the paralyzed side compared to the vehicle and internal control is shown in this FIGURE.
Long-Evans rats are anesthetized under ketamine (60 mg/kg)/xylazine (6 mg/kg). The facial nerve is exposed and mechanically compressed with forceps near the stylomastoid foramen unilaterally with the opposite, non-lesioned side serving as an internal control. […] Rats received test compound p.o. at about 20 mg/kg twice a day for 15 days after the surgery. Control rats received vehicle only. Three to eight rats are tested in each group. Restoration of whisker movement after the treatment with compounds of the present invention is recorded at different post-operative time points daily, up to two weeks, and is shown in FIG. 1.

[5] = system: sensory ganglia; details: cultures of sensory ganglia; cited from earlier work
[6] = system: PC12 cells; details: cultures of PC12 cells; cited from earlier work

| SMILES | Rat Hippocampal Cell Response [1] | M17 Cell Response [2] | further results |
| --- | --- | --- | --- |
| CC(C)(C)C(=O)C(=O)N1CC[C@H]1C(=O)OCCCc1cccnc1 [Compound 10, (2S)-[3-(3-Pyridyl)-1-propyl]-1-(1,2-dioxo-3,3-dimethylbutyl)azetidine-2-carboxylate] | 123% of DMSO-treated control |  |  |
| CCC(C)(C)C(=O)C(=O)N1CC[C@H]1C(=O)OCCC(c1ccccc1)c1ccccc1 [Compound 3, (2S)-(3,3-Diphenyl-1-propyl)1-(1,2-dioxo-3,3-dimethylpentyl) azetidine-2-carboxylate] | 119% of DMSO-treated control | 110% of DMSO-treated control |  |
| CCC(C)(C)C(=O)C(=O)N1[C@@H](C(=O)OCCCCc2ccc(OC)cc2)C[C@H]1C(=O)OCCCCc1ccc(OC)cc1 [Compound 16, (2S,4R)-Bis-[4-(4-methoxyphenyl)-1-butyl]-1-(1,2-dioxo-3,3-dimethylpentyl)azetidine-2,4-dicarboxylate] |  | 114% of DMSO-treated control |  |
| O=C(C(=O)N1CC[C@H]1C(=O)OCCCc1cccnc1)c1ccccc1 [Compound 9] | 112% of DMSO-treated control |  |  |
| CCC(C)(C)C(=O)C(=O)N1CC[C@H]1C(=O)OCCCCc1ccc(OC)cc1 [Compound 4, (2S)-[4-(4-Methoxyphenyl)-1-butyl]-1-(1,2-dioxo-3,3-dimethylpentyl)azetidine-2-carboxylate] |  | 107% of DMSO-treated control |  |
| Cc1cc(C(=O)N2CC[C@H]2C(=O)OCCCc2cccnc2)nn1C [Compound 13, (2S)-[3-(3-Pyridyl)-1-propyl]-1-[(1,5-dimethylpyrazol-3-yl)carbonyl]azetidine-2-carboxylate] | 123% of DMSO-treated control |  |  |
| COc1ccc(CCCCOC(=O)[C@@H]2C[C@@H](C(=O)OCCCCc3ccc(OC)cc3)N2C(=O)C(=O)c2ccccc2)cc1 [Compound 15, (2S,4S)-Bis-[4-(4-methoxyphenyl)-1-butyl)-1-(1,2-dioxo-2-phenylethyl)azetidine-2,4-dicarboxylate] | 126% of DMSO-treated control |  |  |
| CCC(C)(C)C(=O)C(=O)N1CC[C@H]1c1nnnn1CCCc1cccnc1 [Compound 14, (2S)-1-(1,2-Dioxo-3,3-dimethylpentyl)2-(1-[3-(3-pyridyl)-1-propyl]-1H-tetrazol-5-yl)azetidine] | 118% of DMSO-treated control |  |  |
| CCC(C)(C)C(=O)C(=O)N1CC[C@H]1C(=O)OC(C)(C)CCc1cccnc1 [Compound 2, (2S)-[3-(3-Pyridyl)-1,1-dimethyl-1-propyl]-1-(1,2-dioxo-3,3-dimethylpentyl)azetidine-2-dicarboxylate] |  | 134% of DMSO-treated control | DRG [3]: + |
| CCC(C)(C)C(=O)C(=O)N1CC[C@H]1C(=O)OCCCc1cccnc1 [Compound 1, (2S)-[3-(3-Pyridyl)1-propyl]-1-(1,2-dioxo-3,3-dimethylpentyl)azetidine-2-carboxylate] |  | 140% of DMSO-treated control | Restoration of whisker movement on the paralyzed side [4]: restored more rapidly; DRG [3]: + |
| CCC(C)(C)C(=O)C(=O)N1C(C(=O)OCCCc2cccnc2)C[C@H]1C(=O)OCCCc1cccnc1 (stereo partly drawn) [Compound 18, (2S,4R)-Bis-[3-(3-pyridyl)-1-propyl]-1-(1,2-dioxo-3,3-dimethylpentyl)azetidine-2,4-dicarboxylate] | 137% of DMSO-treated control | 106% of DMSO-treated control |  |
| C=CC[C@@H]1/C=C(\C)C[C@H](C)C[C@H](OC)[C@H]2O[C@@](O)(C(=O)C(=O)N3CCCC[C@H]3C(=O)O[C@H](/C(C)=C/[C@@H]3CC[C@@H](O)[C@H](OC)C3)[C@H](C)[C@@H](O)CC1=O)[C@H](C)C[C@@H]2OC [FK506] |  |  | neurotrophic activity [5]: shows neurotrophic activity; neurotrophic activity [6]: shows neurotrophic activity |
| CCC(C)(C)C(=O)C(=O)N1C(C(=O)OCCCc2cccnc2)C[C@@H]1C(=O)OCCCc1cccnc1 (stereo partly drawn) [Compound 20, (2R,4R)-Bis-[3-(3-pyridyl)-1-propyl]-1-(1,2-dioxo-3,3-dimethylpentyl)azetidine-2,4-dicarboxylate] |  | 103% of DMSO-treated control |  |
| CC(C)(C)NC(=O)N1CC[C@H]1C(=O)OCCCc1cccnc1 [Compound 7] | 123% of DMSO-treated control |  |  |
| O=C(C(=O)N1CC[C@H]1C(=O)OCCCc1cccnc1)c1cccs1 [Compound 11, (2S)-[3-(3-Pyridyl)-1-propyl]-1-[1,2-dioxo-2-(thien-2-yl)ethyl]azetidine-2-carboxylate] | 114% of DMSO-treated control |  |  |
| CCC(C)(C)C(=O)C(=O)N1[C@@H](C(=O)OCCC(c2ccccc2)c2ccccc2)C[C@H]1C(=O)OCCC(c1ccccc1)c1ccccc1 [Compound 17, (2S,4R)-Bis-(3,3-diphenyl-1-propyl)-1-(1,2-dioxo-3,3-dimethylpentyl)azetidine-2,4-dicarboxylate] |  | 106% of DMSO-treated control |  |
| CCC(C)(C)C(=O)C(=O)N1[C@@H](C(=O)OCCCCc2ccc(OC)cc2)C[C@@H]1C(=O)OCCCCc1ccc(OC)cc1 [Compound 19, (2R,4R)-Bis-[4-(4-methoxyphenyl)-1-butyl]-1-(1,2-dioxo-3,3-dimethylpentyl)azetidine-2,4-dicarboxylate] |  | 111% of DMSO-treated control |  |
| CCC(C)(C)C(=O)C(=O)N1[C@H](C(=O)OCCCCc2ccc(OC)cc2)C[C@H]1C(=O)OCCCCc1ccc(OC)cc1 [Compound 21, (2S,4S)-Bis-[4-(4-methoxyphenyl)-1-butyl]-1-(1,2-dioxo-3,3-dimethylpentyl)azetidine-2,4-dicarboxylate] |  | 103% of DMSO-treated control |  |

— patent US6544976B1, “Neurotrophic 2-azetidinecarboxylic acid derivatives, and related compositions and methods” (Ortho-McNeil Pharmaceutical, Inc., priority 1999, dated 2003)
